# From patent US7196110B2, “N-substituted tricyclic 3-aminopyrazoles as inhibitors for the treatment of cell proliferative disorders” (Janssen Phamaceutica N.V., priority 2002, dated 2007)
# Like-named read-outs stand apart in the source and are kept apart here.
# Molecular target: T1, PDGF-receptor beta enzyme comprising the tyrosine kinase domain (Homo sapiens, UniProt P09619)
# T1 construct: from amino acid 545 to 1106 of GenBank Access NO: AAA36427
# Experiment: Inhibition of PDGF-receptor kinase activity (cell-free, PLC1 peptide, 33P Flashplate)
# Type: biochemical
# Settings: for inhibition at 10 µM: compound at 10 uM, read-out: Percent Inhibition @ 10 uM
# In short: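 The IC50 is the inhibitor level halving kinase activity relative to inhibitor-free wells, measured as 33P captured on a streptavidin-bound biotin-PLC1 peptide. The reaction ran 60 min at 30 °C in pH 8 Tris buffer with 1 mM DTT, 5 μM ATP and the 545–1106 kinase-domain enzyme.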
# [1] = PDGF-R kinase activity, read-out: IC50
# [2] = read-out: IC50 (μM) on PDGF-R kinase activity
# T1 sequence (P09619 545-1106): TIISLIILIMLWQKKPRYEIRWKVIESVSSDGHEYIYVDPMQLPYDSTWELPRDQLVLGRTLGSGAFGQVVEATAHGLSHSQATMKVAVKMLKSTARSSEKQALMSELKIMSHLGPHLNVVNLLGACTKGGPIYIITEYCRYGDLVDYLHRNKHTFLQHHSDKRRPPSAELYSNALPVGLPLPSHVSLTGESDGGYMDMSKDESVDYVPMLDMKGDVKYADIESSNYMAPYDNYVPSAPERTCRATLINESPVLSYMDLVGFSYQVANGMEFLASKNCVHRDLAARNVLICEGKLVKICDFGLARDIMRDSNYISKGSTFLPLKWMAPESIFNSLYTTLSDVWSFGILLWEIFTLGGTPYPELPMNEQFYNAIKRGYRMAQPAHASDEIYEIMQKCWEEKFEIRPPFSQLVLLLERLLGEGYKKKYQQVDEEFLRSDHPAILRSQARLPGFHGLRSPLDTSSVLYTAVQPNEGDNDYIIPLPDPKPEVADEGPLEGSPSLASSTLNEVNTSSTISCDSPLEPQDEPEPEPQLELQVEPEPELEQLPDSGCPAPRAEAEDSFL
inhibition at 10 µM (PDGF-R kinase activity),IC50 [1],IC50 [2],Compound
81%,1.72 µM,–,"Cc1cccc2c1Cc1c-2n[nH]c1Nc1cccnc1 [Compound 100, (5-Methyl-2,4-dihydro-indeno[1,2-c]pyrazol-3-yl)-pyridin-3-yl-amine]"
87%,0.458 µM,–,"Cc1cccc(CNc2[nH]nc3c2Cc2cc(F)ccc2-3)c1 [Compound 305, (6-Fluoro-2,4-dihydro-indeno[1,2-c]pyrazol-3-yl)-(3-methyl-benzyl)-amine]"
100%,0.0058 µM,–,"COc1cc2c(cc1OCCCN1CCN(C)CC1)Cc1c-2n[nH]c1Nc1cccc(F)c1 [Compound 216, (3-Fluoro-phenyl)-{7-methoxy-6-[3-(4-methyl-piperazin-1-yl)-propoxy]-2,4-dihydro-indeno[1,2-c]pyrazol-3-yl}-amine]"
87%,1.94 µM,–,"Cc1cccc2c1Cc1c-2n[nH]c1Nc1ccccc1 [Compound 23, (5-Methyl-2,4-dihydro-indeno[1,2-c]pyrazol-3-yl)-phenyl-amine]"
90.5%,0.275 µM,–,"COc1cc2c(cc1OC)-c1n[nH]c(Nc3cccc(C(=O)NCCO)c3)c1C2 [Compound 297, 3-(6,7-Dimethoxy-2,4-dihydro-indeno[1,2-c]pyrazol-3-ylamino)-N-(2-hydroxy-ethyl)-benzamide]"
79%,1.25 µM,–,"Cc1ccc2c(c1)-c1n[nH]c(NCc3ccc(F)c(F)c3)c1C2 [Compound 317, (3,4-Difluoro-benzyl)-(7-methyl-2,4-dihydro-indeno[1,2-c]pyrazol-3-yl)-amine]"
64.5%,1.33 µM,–,"COCCCOc1ccc2c(c1)Cc1c-2n[nH]c1Nc1ccc(F)cc1 [Compound 136, (4-Fluoro-phenyl)-[6-(3-methoxy-propoxy)-2,4-dihydro-indeno[1,2-c]pyrazol-3-yl]-amine]"
84%,0.382 µM,–,"CN(C)CCCOc1ccc2c(c1)Cc1c-2n[nH]c1Nc1cccnc1 [Compound 161, [6-(3-Dimethylamino-propoxy)-2,4-dihydro-indeno[1,2-c]pyrazol-3-yl]-pyridin-3-yl-amine]"
47%,–,–,"COc1ccc(Nc2[nH]nc3c2Cc2cc(OC)c(OC)cc2-3)c(OC)c1 [Compound 47, (6,7-Dimethoxy-2,4-dihydro-indeno[1,2-c]pyrazol-3-yl)-(2,4-dimethoxy-phenyl)-amine]"
86%,0.773 µM,–,"COc1cc2c(cc1OC)-c1c(c(Nc3cccc(F)c3)nn1C(=O)Oc1ccccc1Cl)C2 [Compound 513, 3-(3-Fluoro-phenylamino)-6,7-dimethoxy-4H-indeno[1,2-c]pyrazole-1-carboxylic acid 2-chloro-phenyl ester]"
62.5%,3.5 µM,–,"Cc1ccc2c(c1)-c1n[nH]c(NCc3cc(Cl)cc(Cl)c3)c1C2 [Compound 313, (3,5-Dichloro-benzyl)-(7-methyl-2,4-dihydro-indeno[1,2-c]pyrazol-3-yl)-amine]"
90%,0.024 µM,–,"COc1cc2c(cc1OC)-c1c(c(Nc3cccc(F)c3)nn1C(=O)CCC(N)=O)C2 [Compound 531, 4-[3-(3-Fluoro-phenylamino)-6,7-dimethoxy-4H-indeno[1,2-c]pyrazol-1-yl]-4-oxo-butyramide]"
76%,2.28 µM,–,"FC(F)(F)c1cc(Nc2[nH]nc3c2Cc2cc(Cl)ccc2-3)cc(C(F)(F)F)c1 [Compound 195, (3,5-Bis-trifluoromethyl-phenyl)-(6-chloro-2,4-dihydro-indeno[1,2-c]pyrazol-3-yl)-amine]"
82.5%,0.453 µM,–,"COCCCOc1ccc2c(c1)Cc1c-2n[nH]c1Nc1cccnc1 [Compound 142, [6-(3-Methoxy-propoxy)-2,4-dihydro-indeno[1,2-c]pyrazol-3-yl]-pyridin-3-yl-amine]"

# Continued, compound first:
Compound,inhibition at 10 µM (PDGF-R kinase activity),IC50 [1],IC50 [2]
"COc1cc2c(cc1OC)-c1n[nH]c(NCc3ccc(Cl)c(Cl)c3)c1C2 [Compound 219, (3,4-Dichloro-benzyl)-(6,7-dimethoxy-2,4-dihydro-indeno[1,2-c]pyrazol-3-yl)-amine]",39%,–,–
"COc1ccc2c(c1)Cc1c-2n[nH]c1Nc1cccnc1 [Compound 84, (6-Methoxy-2,4-dihydro-indeno[1,2-c]pyrazol-3-yl)-pyridin-3-yl-amine]",86%,0.71 µM,–
"COc1cc2c(cc1OC)-c1n[nH]c(NCCN3CCCCC3)c1C2 [Compound 81, (6,7-Dimethoxy-2,4-dihydro-indeno[1,2-c]pyrazol-3-yl)-(2-piperidin-1-yl-ethyl)-amine]",29%,85.9 µM,–
"Fc1cccc(Nc2n[nH]c3c2Cc2sccc2-3)c1 [Compound 335, (5,7-Dihydro-1-thia-4,5-diaza-cyclopenta[a]pentalen-6-yl)-(3-fluoro-phenyl)-amine]",100%,0.129 µM,–
"COC(=O)CCC(=O)n1nc(Nc2cccc(F)c2)c2c1-c1cc(OC)c(OC)cc1C2 [Compound 428, 4-[3-(3-Fluoro-phenylamino)-6,7-dimethoxy-4H-indeno[1,2-c]pyrazol-1-yl]-4-oxo-butyric acid methyl ester]",85.5%,0.432 µM,–
"Cc1cccc2c1Cc1c-2n[nH]c1Nc1ccc(C(F)(F)F)cc1 [Compound 105, (5-Methyl-2,4-dihydro-indeno[1,2-c]pyrazol-3-yl)-(4-trifluoromethyl-phenyl)-amine]",69%,1.88 µM,–
"COc1cc2c(cc1OC)-c1n[nH]c(Nc3cc(Cl)ccc3C)c1C2 [Compound 46, (5-Chloro-2-methyl-phenyl)-(6,7-dimethoxy-2,4-dihydro-indeno[1,2-c]pyrazol-3-yl)-amine]",51%,14.2 µM,–
"OCCCOc1cccc2c1Cc1c-2n[nH]c1NCc1ccccc1F [Compound 444, 3-[3-(2-Fluoro-benzylamino)-2,4-dihydro-indeno[1,2-c]pyrazol-5-yloxy]-propan-1-ol]",79.5%,0.518 µM,–
"CN(C)CCCOc1ccc2c(c1)Cc1c-2n[nH]c1Nc1ccc(OC(F)(F)F)cc1 [Compound 217, [6-(3-Dimethylamino-propoxy)-2,4-dihydro-indeno[1,2-c]pyrazol-3-yl]-(4-trifluoromethoxy-phenyl)-amine]",51%,3.48 µM,–
"COc1cc2c(cc1OC)C(C)c1c-2n[nH]c1Nc1cccc(Br)c1 (single isomer, unassigned) [Compound 568, *S-(3-Bromo-phenyl)-(6,7-dimethoxy-4-methyl-2,4-dihydro-indeno[1,2-c]pyrazol-3-yl)-amine]",78%,0.79 µM,–
"OCC(O)COc1cccc2c1Cc1c-2n[nH]c1NCc1c(Cl)cccc1Cl (stereo not drawn) [Compound 479, 3-[3-(2,6-Dichloro-benzylamino)-2,4-dihydro-indeno[1,2-c]pyrazol-5-yloxy]-propane-1,2-diol]",94.5%,0.624 µM,–
"COc1cc2c(cc1OC)-c1c(c(Nc3cccc(F)c3)nn1CCO)C2 [Compound 572, 2-[3-(3-Fluoro-phenylamino)-6,7-dimethoxy-4H-indeno[1,2-c]pyrazol-1-yl]-ethanol]",67%,–,7.33 µM
"COc1cc2c(cc1OC)-c1n[nH]c(Nc3ncccc3C)c1C2 [Compound 587, (6,7-Dimethoxy-2,4-dihydro-indeno[1,2-c]pyrazol-3-yl)-(3-methyl-pyridin-2-yl)-amine]",86%,–,1.7 µM
"CNC(=O)n1nc2c(c1Nc1cccc(F)c1)Cc1cc(OC)c(OC)cc1-2 [Compound 579, 3-(3-Fluoro-phenylamino)-6,7-dimethoxy-4H-indeno[1,2-c]pyrazole-2-carboxylic acid methylamide]",28%,–,–
"COc1cccc2c1Cc1c-2n[nH]c1Nc1cccnc1 [Compound 146, (5-Methoxy-2,4-dihydro-indeno[1,2-c]pyrazol-3-yl)-pyridin-3-yl-amine]",78.5%,0.16 µM,–
"COc1ccc(Nc2[nH]nc3c2Cc2ccc(OC)cc2-3)cc1 [Compound 171, (7-Methoxy-2,4-dihydro-indeno[1,2-c]pyrazol-3-yl)-(4-methoxy-phenyl)-amine]",92.5%,0.123 µM,–
"COc1cc2c(cc1OC)-c1n[nH]c(Nc3ccc4c(c3)OCO4)c1C2 [Compound 62, Benzo[1,3]dioxol-5-yl-(6,7-dimethoxy-2,4-dihydro-indeno[1,2-c]pyrazol-3-yl)-amine]",85%,0.313 µM,–
"Fc1ccc2c(c1)Cc1c-2n[nH]c1Nc1ccc2[nH]ccc2c1 [Compound 290, (6-Fluoro-2,4-dihydro-indeno[1,2-c]pyrazol-3-yl)-(1H-indol-5-yl)-amine]",87.5%,0.0614 µM,–
"COc1cccc(Nc2[nH]nc3c2Cc2cc(OCCCN4CCOCC4)c(OC)cc2-3)c1 [Compound 131, [7-Methoxy-6-(3-morpholin-4-yl-propoxy)-2,4-dihydro-indeno[1,2-c]pyrazol-3-yl]-(3-methoxy-phenyl)-amine]",97%,0.013 µM,–
"CC(C)Oc1cc2c(cc1OC(C)C)C(C)c1c-2n[nH]c1Nc1ccc(F)c(Cl)c1 (stereo not drawn) [Compound 354, (3-Chloro-4-fluoro-phenyl)-(6,7-diisopropoxy-4-methyl-2,4-dihydro-indeno[1,2-c]pyrazol-3-yl)-amine]",62%,2.45 µM,–
"COc1cc2c(cc1OC)-c1n[nH]c(Nc3ccccc3C)c1C2 [Compound 31, (6,7-Dimethoxy-2,4-dihydro-indeno[1,2-c]pyrazol-3-yl)-o-tolyl-amine]",59%,0.115 µM,–
"COc1cc2c(cc1OC)-c1n[nH]c(Nc3cccc(C#N)c3)c1C2 [Compound 61, 3-(6,7-Dimethoxy-2,4-dihydro-indeno[1,2-c]pyrazol-3-ylamino)-benzonitrile]",71%,0.137 µM,–
